± gives the expanded uncertainty stated by the source.
Conditions: 101.33 kPa, Liquid; for speed of sound: Pulse-echo method; for mass density: Vibrating tube method

CCC(=O)[O-].C[NH2+]CCO [2-hydroxy-N-methylethanaminium propionate]
Conditions | mass density [kg/m3] | speed of sound [m/s] | viscosity [mPa·s]
308.15 K | 1064.8 ± 2.2 | 1660.5 ± 2.1 | 118 ± 7.2
308.4 K | 1064.63 ± 2.2 | 1659.8 ± 2.1 | –
308.65 K | 1064.46 ± 2.2 | 1659 ± 2.1 | –
308.9 K | 1064.3 ± 2.2 | 1658.3 ± 2.1 | –
309.15 K | 1064.14 ± 2.2 | 1657.6 ± 2.1 | –
309.4 K | 1063.97 ± 2.2 | 1656.8 ± 2.1 | –
309.65 K | 1063.81 ± 2.2 | 1656.1 ± 2.1 | –
309.9 K | 1063.64 ± 2.2 | 1655.4 ± 2.1 | –
310.15 K | 1063.48 ± 2.2 | 1654.6 ± 2.1 | 105.84 ± 5.6
310.4 K | 1063.31 ± 2.2 | 1653.9 ± 2.1 | –
310.65 K | 1063.15 ± 2.2 | 1653.1 ± 2.1 | –
310.91 K | 1062.98 ± 2.2 | 1652.4 ± 2.1 | –
311.16 K | 1062.82 ± 2.2 | 1651.7 ± 2.1 | –
311.4 K | 1062.65 ± 2.2 | 1650.9 ± 2.1 | –
311.65 K | 1062.49 ± 2.2 | 1650.2 ± 2.1 | –
311.91 K | 1062.33 ± 2.2 | 1649.4 ± 2.1 | –
312.16 K | 1062.16 ± 2.2 | 1648.7 ± 2.1 | –
312.41 K | 1061.99 ± 2.2 | 1648 ± 2.1 | –
312.66 K | 1061.83 ± 2.2 | 1647.2 ± 2.1 | –
312.91 K | 1061.66 ± 2.2 | 1646.5 ± 2.1 | –
313.15 K | – | – | 93.38 ± 4.3
313.16 K | 1061.5 ± 2.2 | 1645.7 ± 2.1 | –
313.4 K | 1061.33 ± 2.2 | 1645 ± 2.1 | –
313.66 K | 1061.17 ± 2.2 | 1644.2 ± 2.1 | –
313.9 K | 1061 ± 2.2 | 1643.5 ± 2.1 | –
314.15 K | 1060.84 ± 2.2 | 1642.8 ± 2.1 | –
314.4 K | 1060.67 ± 2.2 | 1642 ± 2.1 | –
314.65 K | 1060.5 ± 2.2 | 1641.3 ± 2.1 | –
314.9 K | 1060.34 ± 2.2 | 1640.5 ± 2.1 | –
315.15 K | 1060.17 ± 2.2 | 1639.8 ± 2.1 | –
315.41 K | 1060.01 ± 2.2 | 1639 ± 2.1 | –
315.65 K | 1059.84 ± 2.2 | 1638.3 ± 2.1 | 81.2 ± 3.2
315.91 K | 1059.67 ± 2.2 | 1637.6 ± 2.1 | –
316.16 K | 1059.51 ± 2.2 | 1636.8 ± 2.1 | –
316.41 K | 1059.34 ± 2.2 | 1636.1 ± 2.1 | –
316.66 K | 1059.18 ± 2.2 | 1635.4 ± 2.1 | –
316.91 K | 1059.01 ± 2.2 | 1634.6 ± 2.1 | –
317.16 K | 1058.84 ± 2.2 | 1633.9 ± 2.1 | –
317.4 K | 1058.67 ± 2.2 | 1633.2 ± 2.1 | –
317.66 K | 1058.51 ± 2.2 | 1632.4 ± 2.1 | –
317.91 K | 1058.34 ± 2.2 | 1631.7 ± 2.1 | –
318.15 K | – | – | 70.3 ± 2.3
318.16 K | 1058.17 ± 2.2 | 1630.9 ± 2.1 | –
318.41 K | 1058.01 ± 2.2 | 1630.2 ± 2.1 | –
318.65 K | 1057.84 ± 2.2 | 1629.4 ± 2.1 | –
318.9 K | 1057.67 ± 2.2 | 1628.7 ± 2.1 | –
319.16 K | 1057.51 ± 2.2 | 1628 ± 2.1 | –
319.41 K | 1057.34 ± 2.2 | 1627.2 ± 2.1 | –
319.65 K | 1057.17 ± 2.2 | 1626.5 ± 2.1 | 64.18 ± 1.9
319.91 K | 1057 ± 2.2 | 1625.7 ± 2.1 | –
320.16 K | 1056.83 ± 2.2 | 1624.9 ± 2.1 | –
320.41 K | 1056.67 ± 2.2 | 1624.2 ± 2.1 | –
320.65 K | 1056.5 ± 2.2 | 1623.4 ± 2.1 | –
320.91 K | 1056.33 ± 2.2 | 1622.7 ± 2.1 | –
321.15 K | 1056.16 ± 2.2 | 1622 ± 2.1 | –
321.41 K | 1056 ± 2.2 | 1621.2 ± 2.1 | –
321.66 K | 1055.83 ± 2.2 | 1620.4 ± 2.1 | –
321.9 K | 1055.66 ± 2.2 | 1619.7 ± 2.1 | –
322.15 K | 1055.49 ± 2.2 | 1618.9 ± 2.1 | –
322.41 K | 1055.32 ± 2.2 | 1618.2 ± 2.1 | –
322.65 K | 1055.15 ± 2.2 | 1617.5 ± 2.1 | –
322.91 K | 1054.99 ± 2.2 | 1616.7 ± 2.1 | –
323.15 K | – | – | 55.1 ± 1.4
323.16 K | 1054.82 ± 2.2 | 1616 ± 2.1 | –
323.41 K | 1054.65 ± 2.2 | 1615.2 ± 2.1 | –
323.65 K | 1054.48 ± 2.2 | 1614.5 ± 2.1 | –
323.91 K | 1054.31 ± 2.2 | 1613.7 ± 2.1 | –
324.16 K | 1054.15 ± 2.2 | 1613 ± 2.1 | –
324.41 K | 1053.97 ± 2.2 | 1612.2 ± 2.1 | –
324.65 K | 1053.81 ± 2.2 | 1611.4 ± 2.1 | –
324.9 K | 1053.64 ± 2.2 | 1610.7 ± 2.1 | –
325.16 K | 1053.47 ± 2.2 | 1609.9 ± 2.1 | –
325.4 K | 1053.3 ± 2.2 | 1609.2 ± 2.1 | –
325.66 K | 1053.13 ± 2.2 | 1608.4 ± 2.1 | –
325.9 K | 1052.96 ± 2.2 | 1607.7 ± 2.1 | –
326.16 K | 1052.79 ± 2.2 | 1606.9 ± 2.1 | –
326.41 K | 1052.62 ± 2.2 | 1606.2 ± 2.1 | –
326.66 K | 1052.45 ± 2.2 | 1605.4 ± 2.1 | –
326.9 K | 1052.29 ± 2.2 | 1604.7 ± 2.1 | –
327.16 K | 1052.12 ± 2.2 | 1603.9 ± 2.1 | –
327.4 K | 1051.94 ± 2.2 | 1603.2 ± 2.1 | –
327.66 K | 1051.78 ± 2.2 | 1602.4 ± 2.1 | –
327.9 K | 1051.61 ± 2.2 | 1601.7 ± 2.1 | –
328.15 K | 1051.44 ± 2.2 | 1600.9 ± 2.1 | –
328.41 K | 1051.27 ± 2.2 | 1600.2 ± 2.1 | –
328.66 K | 1051.1 ± 2.2 | 1599.4 ± 2.1 | –
328.9 K | 1050.93 ± 2.2 | 1598.6 ± 2.1 | –
329.16 K | 1050.76 ± 2.2 | 1597.9 ± 2.1 | –
329.4 K | 1050.59 ± 2.2 | 1597.1 ± 2.1 | –
329.65 K | 1050.42 ± 2.2 | 1596.4 ± 2.1 | –
329.9 K | 1050.24 ± 2.2 | 1595.6 ± 2.1 | –
330.16 K | 1050.07 ± 2.2 | 1594.9 ± 2.1 | –
330.41 K | 1049.9 ± 2.2 | 1594.1 ± 2.1 | –
330.66 K | 1049.73 ± 2.2 | 1593.3 ± 2.1 | –
330.91 K | 1049.56 ± 2.2 | 1592.6 ± 2.1 | –
331.16 K | 1049.39 ± 2.2 | 1591.8 ± 2.1 | –
331.41 K | 1049.22 ± 2.2 | 1591.1 ± 2.1 | –
331.66 K | 1049.05 ± 2.2 | 1590.3 ± 2.1 | –
331.91 K | 1048.88 ± 2.2 | 1589.5 ± 2.1 | –
332.16 K | 1048.71 ± 2.2 | 1588.8 ± 2.1 | –
332.41 K | 1048.54 ± 2.2 | 1588 ± 2.1 | –
332.66 K | 1048.36 ± 2.2 | 1587.3 ± 2.1 | –
332.91 K | 1048.19 ± 2.2 | 1586.5 ± 2.1 | –
333.16 K | 1048.02 ± 2.2 | 1585.7 ± 2.1 | –
333.41 K | 1047.85 ± 2.2 | 1585 ± 2.1 | –
333.66 K | 1047.68 ± 2.2 | 1584.2 ± 2.1 | –
333.91 K | 1047.51 ± 2.2 | 1583.5 ± 2.1 | –
334.16 K | 1047.33 ± 2.2 | 1582.7 ± 2.1 | –
334.41 K | 1047.16 ± 2.2 | 1582 ± 2.1 | –
334.66 K | 1046.99 ± 2.2 | 1581.2 ± 2.1 | –
334.91 K | 1046.82 ± 2.2 | 1580.5 ± 2.1 | –
335.16 K | 1046.64 ± 2.2 | 1579.7 ± 2.1 | –
335.41 K | 1046.47 ± 2.2 | 1579 ± 2.1 | –
335.66 K | 1046.3 ± 2.2 | 1578.2 ± 2.1 | –
335.91 K | 1046.13 ± 2.2 | 1577.5 ± 2.1 | –
336.16 K | 1045.95 ± 2.2 | 1576.7 ± 2.1 | –
336.41 K | 1045.78 ± 2.2 | 1576 ± 2.1 | –
336.66 K | 1045.61 ± 2.2 | 1575.2 ± 2.1 | –
336.9 K | 1045.44 ± 2.2 | 1574.4 ± 2.1 | –
337.16 K | 1045.27 ± 2.2 | 1573.7 ± 2.1 | –
337.4 K | 1045.09 ± 2.2 | 1572.9 ± 2.1 | –
337.66 K | 1044.92 ± 2.2 | 1572.1 ± 2.1 | –
337.9 K | 1044.75 ± 2.2 | 1571.3 ± 2.1 | –
338.15 K | 1044.58 ± 2.2 | 1570.6 ± 2.1 | –

From the NIST ThermoML archive (doi:10.1021/je900550v)
